Target: PASK (Homo sapiens, UniProt Q96RG2, F1266C/Y899H)
Conditions: read-out: Km for PASK; ATP as co-substrate
Description: One HTS assay kinase assay we employ is a robust and simple, non-radioactive chemiluminescent assay that measures the ability of the human enzyme to phosphorylate a biotinylated derivative of the AMARA peptide. The enzyme is expressed in baculovirus and purified by affinity and ion-exchange chromatography under routine conditions. Assay buffer is composed of 20 mM Tris-HC1, pH 7.5, 10 mM MgC12, 2 mM EGTA, 0.1% NP-40, 0.5 mM benzamidine, 1 mM NaF and 10 mM DTT. Enzyme is added to this buffer at a concentration determined to be in the linear range of activity (10 ng per microtiter plate well). For the most robust and sensitive kinase assay, we use an ATP concentration matching the Kmfor PASK (2.5 mM). After dispensing 80 ul of the enzyme/buffer mix per well in Costar 96-well microtiter plates (coated with Neutravidin at 0.5 mg/ml at room temperature for 2 hr), 10 μl of test compounds is added at a final concentration of 1 μM compound. Compounds are diluted in DMSO from master plates stored in DMSO at 10 mM. Following compound addition, the reactions are initiated by addition of 10 μl of biotinylated AMARA peptide and ATP such that the final concentration of substrate and ATP are 1 mM and 2.5 mM respectively. […] Reactions are developed by addition of 100 μl of Super Signal substrate (Pierce) and read colorimetrically using a Wallac Victor2, 1420 Multilabel Counter.

Chain of PASK (Q96RG2 whole entry Y899H/F1266C): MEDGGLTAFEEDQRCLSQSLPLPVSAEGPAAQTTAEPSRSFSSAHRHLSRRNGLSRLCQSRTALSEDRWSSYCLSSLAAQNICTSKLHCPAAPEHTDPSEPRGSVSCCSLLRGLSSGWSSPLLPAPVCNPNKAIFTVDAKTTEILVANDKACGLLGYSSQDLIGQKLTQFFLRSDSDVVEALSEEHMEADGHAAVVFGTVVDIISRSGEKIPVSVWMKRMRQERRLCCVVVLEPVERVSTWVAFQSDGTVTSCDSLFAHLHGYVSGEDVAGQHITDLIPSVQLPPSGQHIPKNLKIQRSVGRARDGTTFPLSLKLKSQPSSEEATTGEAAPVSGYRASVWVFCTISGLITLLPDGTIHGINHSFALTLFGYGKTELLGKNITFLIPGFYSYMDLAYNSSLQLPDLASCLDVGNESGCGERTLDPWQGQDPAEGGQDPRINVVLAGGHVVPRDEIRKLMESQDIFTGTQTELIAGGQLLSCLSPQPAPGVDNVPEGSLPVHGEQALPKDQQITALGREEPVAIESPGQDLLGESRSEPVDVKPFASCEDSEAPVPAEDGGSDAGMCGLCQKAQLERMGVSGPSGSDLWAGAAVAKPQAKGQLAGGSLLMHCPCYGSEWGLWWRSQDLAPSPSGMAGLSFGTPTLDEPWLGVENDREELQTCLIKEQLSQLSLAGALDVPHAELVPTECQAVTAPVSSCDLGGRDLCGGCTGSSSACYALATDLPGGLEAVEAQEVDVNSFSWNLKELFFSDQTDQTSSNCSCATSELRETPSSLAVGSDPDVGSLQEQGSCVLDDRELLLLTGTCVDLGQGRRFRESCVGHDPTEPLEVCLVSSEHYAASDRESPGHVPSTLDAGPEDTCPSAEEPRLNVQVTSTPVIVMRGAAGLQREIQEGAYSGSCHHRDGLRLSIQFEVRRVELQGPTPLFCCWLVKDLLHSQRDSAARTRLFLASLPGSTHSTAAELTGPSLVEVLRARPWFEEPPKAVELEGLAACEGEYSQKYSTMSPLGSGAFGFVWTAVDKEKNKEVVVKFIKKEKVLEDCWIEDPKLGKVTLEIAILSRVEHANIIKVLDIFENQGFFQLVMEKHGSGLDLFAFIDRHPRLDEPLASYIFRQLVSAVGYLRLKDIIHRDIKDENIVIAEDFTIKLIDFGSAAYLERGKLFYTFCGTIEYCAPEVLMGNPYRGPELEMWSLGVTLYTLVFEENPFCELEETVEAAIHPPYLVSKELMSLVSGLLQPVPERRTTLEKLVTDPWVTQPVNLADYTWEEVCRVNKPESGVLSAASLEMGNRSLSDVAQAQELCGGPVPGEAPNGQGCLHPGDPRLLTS

Compound: Nc1ncnc2c1ncn2[C@@H]1O[C@H](COP(=O)(O)OP(=O)(O)OP(=O)(O)O)[C@@H](O)[C@H]1O [ATP]
- Km: 2500 µM
